From ChEMBL document CHEMBL1201862, “PubChem BioAssay data set” (2004)
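96-well plates; 48 h exposure; 5 concentrations. Endpoints by linear interpolation between flanking doses. Not reached: highest tested concentration assigned. At the GI50, growth is halved.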 Active and inactive are the calls of the source. Cut-off read from the data, not from the text of the source: active = GI50 up to about 1.1 µM and inactive = higher.

Tests used:
Experiment in all cases: DTP human tumour cell line panel, 48 h
A498 = test system: A498
A549 = test system: A549
HCT-116 = test system: HCT-116
HL-60 = test system: HL-60
HOP-62 = test system: HOP-62
IGROV-1 = test system: IGROV-1
KM12 = test system: KM12
LOX IMVI = test system: LOX IMVI
MCF7 = test system: MCF7
MOLT-4 = test system: MOLT-4
Malme-3M = test system: Malme-3M
NCI-H23 = test system: NCI-H23
NCI/ADR-RES = test system: NCI/ADR-RES
OVCAR-5 = test system: OVCAR-5
OVCAR-8 = test system: OVCAR-8
SK-MEL-28 = test system: SK-MEL-28
SK-MEL-5 = test system: SK-MEL-5
SK-OV-3 = test system: SK-OV-3
MDA-MB-435 = test system: MDA-MB-435
MDA-MB-231 = test system: MDA-MB-231

SMILES | GI50 (A498) | GI50 (A549) | GI50 (HCT-116) | GI50 (HL-60) | GI50 (HOP-62) | GI50 (IGROV-1) | GI50 (KM12) | GI50 (LOX IMVI) | GI50 (MCF7) | GI50 (MOLT-4) | GI50 (Malme-3M) | GI50 (NCI-H23) | GI50 (NCI/ADR-RES) | GI50 (OVCAR-5) | GI50 (OVCAR-8) | GI50 (SK-MEL-28) | GI50 (SK-MEL-5) | GI50 (SK-OV-3) | GI50 (MDA-MB-435) | GI50 (MDA-MB-231)
O=NN(CCCl)C(=O)N[C@H]1CC[C@@H](C(=O)O)CC1 | > 100 µM (inactive) | 89.7 µM (inactive) | > 100 µM (inactive) | 33.7 µM (inactive) | 83 µM (inactive) | > 100 µM (inactive) | > 100 µM (inactive) | 45.1 µM (inactive) | > 100 µM (inactive) | 32.2 µM (inactive) | > 96.2 µM (inactive) | 97.7 µM (inactive) | > 100 µM (inactive) | > 100 µM (inactive) | > 100 µM (inactive) | > 100 µM (inactive) | > 100 µM (inactive) | > 100 µM (inactive) | – | –
Oc1ncnc2c1nnn2CCCCCCCCCCCCn1nnc2c(O)ncnc21 | 25.2 µM (inactive) | 36.9 µM (inactive) | 18.2 µM (inactive) | > 45.4 µM (inactive) | 21.7 µM (inactive) | 22.2 µM (inactive) | > 100 µM (inactive) | 45.8 µM (inactive) | 98.6 µM (inactive) | > 100 µM (inactive) | > 100 µM (inactive) | 5.68 µM (inactive) | > 100 µM (inactive) | 99.1 µM (inactive) | 41.5 µM (inactive) | > 93.1 µM (inactive) | 19.8 µM (inactive) | 17.7 µM (inactive) | > 100 µM (inactive) | –
O=C(O)c1cccc(S(=O)(=O)NN2C(=O)CSC2c2ccccc2)c1 (stereo not drawn) | > 100 µM (inactive) | > 100 µM (inactive) | > 100 µM (inactive) | 4.4 µM (inactive) | > 100 µM (inactive) | > 100 µM (inactive) | > 100 µM (inactive) | > 100 µM (inactive) | > 100 µM (inactive) | > 100 µM (inactive) | > 100 µM (inactive) | > 100 µM (inactive) | – | > 100 µM (inactive) | > 100 µM (inactive) | > 100 µM (inactive) | > 100 µM (inactive) | > 100 µM (inactive) | > 100 µM (inactive) | > 100 µM (inactive)
Cc1cc2nc3c(C#N)c(-c4ccccc4)cc(Nc4ccc(F)cc4)n3c2cc1C | 22.1 µM (inactive) | – | 13.7 µM (inactive) | – | 14.4 µM (inactive) | – | 86.7 µM (inactive) | 13.4 µM (inactive) | – | 17.6 µM (inactive) | 21.5 µM (inactive) | 13.4 µM (inactive) | 8.11 µM (inactive) | 15.6 µM (inactive) | 10.7 µM (inactive) | 46.2 µM (inactive) | 16 µM (inactive) | 16.7 µM (inactive) | > 100 µM (inactive) | 15.1 µM (inactive)
COC(OC)c1cccc2c1C1(O)CCC3(CC21)OCCCCO3 (stereo not drawn) | > 100 µM (inactive) | > 100 µM (inactive) | > 100 µM (inactive) | > 100 µM (inactive) | > 100 µM (inactive) | > 100 µM (inactive) | > 100 µM (inactive) | > 100 µM (inactive) | – | > 100 µM (inactive) | > 100 µM (inactive) | > 100 µM (inactive) | – | > 100 µM (inactive) | > 100 µM (inactive) | > 100 µM (inactive) | > 100 µM (inactive) | > 100 µM (inactive) | – | –
Cn1cnc([N+](=O)[O-])c1Sc1nc2cccnc2[nH]1 | > 100 µM (inactive) | 90.2 µM (inactive) | 90.6 µM (inactive) | 12.5 µM (inactive) | > 100 µM (inactive) | 71.4 µM (inactive) | 54.1 µM (inactive) | 79.8 µM (inactive) | – | 29.9 µM (inactive) | > 100 µM (inactive) | 88.7 µM (inactive) | – | > 100 µM (inactive) | 86.5 µM (inactive) | 62.5 µM (inactive) | > 100 µM (inactive) | > 100 µM (inactive) | – | –
N#Cc1c2c(c(Nc3cccc(C(F)(F)F)c3)n3c1nc1ccccc13)CCC2 | > 100 µM (inactive) | – | > 100 µM (inactive) | – | > 100 µM (inactive) | – | > 100 µM (inactive) | > 100 µM (inactive) | – | > 100 µM (inactive) | > 100 µM (inactive) | > 100 µM (inactive) | > 100 µM (inactive) | > 100 µM (inactive) | > 100 µM (inactive) | > 100 µM (inactive) | > 100 µM (inactive) | > 100 µM (inactive) | > 100 µM (inactive) | > 100 µM (inactive)
O=C(Cc1ccccc1)NNc1nc(NNC(=O)c2ccncc2)nc(Nc2ccccc2)n1 | – | – | – | > 10 µM (inactive) | > 10 µM (inactive) | > 10 µM (inactive) | > 10 µM (inactive) | > 10 µM (inactive) | > 10 µM (inactive) | > 10 µM (inactive) | > 10 µM (inactive) | – | > 10 µM (inactive) | – | > 10 µM (inactive) | > 10 µM (inactive) | – | > 10 µM (inactive) | – | > 10 µM (inactive)
COc1ccc(C2OC(=O)c3c2ccc2ccccc32)c(C)c1 (stereo not drawn) | 1.93 µM (inactive) | 3.07 µM (inactive) | 3.81 µM (inactive) | 2.33 µM (inactive) | 3.48 µM (inactive) | 4.79 µM (inactive) | 2.38 µM (inactive) | – | 3.45 µM (inactive) | 2.73 µM (inactive) | 1 µM (active) | 5.41 µM (inactive) | – | 13.2 µM (inactive) | 4.06 µM (inactive) | 2.92 µM (inactive) | 1.77 µM (inactive) | – | – | 3 µM (inactive)
Cn1nc2n(c1=O)CCCN2 | > 100 µM (inactive) | > 100 µM (inactive) | > 100 µM (inactive) | > 100 µM (inactive) | > 100 µM (inactive) | > 100 µM (inactive) | > 100 µM (inactive) | > 100 µM (inactive) | – | – | > 100 µM (inactive) | > 100 µM (inactive) | > 100 µM (inactive) | > 100 µM (inactive) | > 100 µM (inactive) | > 100 µM (inactive) | > 100 µM (inactive) | – | > 100 µM (inactive) | > 100 µM (inactive)
c1ccc(/N=c2/sc3ccccc3s/c2=N/c2ccccc2)cc1 | 2.33 µM (inactive) | 2.54 µM (inactive) | 1.72 µM (inactive) | 6.41 µM (inactive) | 4.45 µM (inactive) | 1.62 µM (inactive) | 1.99 µM (inactive) | 1.7 µM (inactive) | – | 5.18 µM (inactive) | 1.86 µM (inactive) | 1.96 µM (inactive) | 2.67 µM (inactive) | 2.11 µM (inactive) | 1.89 µM (inactive) | 1.81 µM (inactive) | 1.99 µM (inactive) | 2.81 µM (inactive) | 1.9 µM (inactive) | 2.21 µM (inactive)
CCn1c2c(n(CC)c1=S)-c1c(n(CC)c(=S)n1CC)SSSS2 | 37.5 µM (inactive) | 36.7 µM (inactive) | 3.4 µM (inactive) | 2.9 µM (inactive) | > 100 µM (inactive) | 17.8 µM (inactive) | 19.2 µM (inactive) | 9.79 µM (inactive) | 16 µM (inactive) | 2.31 µM (inactive) | 2.83 µM (inactive) | 8.75 µM (inactive) | – | 17.3 µM (inactive) | 8.77 µM (inactive) | 7.31 µM (inactive) | 27 µM (inactive) | > 67.3 µM (inactive) | 13.3 µM (inactive) | 2.18 µM (inactive)
CC(C)(C)OC(=O)NC(CO)c1cccc(OCc2ccccc2)c1 (stereo not drawn) | > 87.9 µM (inactive) | 42.8 µM (inactive) | > 65.2 µM (inactive) | 13.9 µM (inactive) | > 82.4 µM (inactive) | > 100 µM (inactive) | > 100 µM (inactive) | 49 µM (inactive) | – | 30.3 µM (inactive) | 63 µM (inactive) | > 65.5 µM (inactive) | – | > 100 µM (inactive) | > 100 µM (inactive) | > 100 µM (inactive) | 28.2 µM (inactive) | > 100 µM (inactive) | – | –
CC(=O)OC1[C@H](OC(C)=O)C2=C(C)[C@@H](OC(C)=O)C[C@@]2(C(C)(C)O)[C@@H](OC(C)=O)[C@H]2[C@@]1(C)[C@@H](OC(C)=O)CC(OC(C)=O)[C@]21CO1 (stereo partly drawn) | – | > 100 µM (inactive) | > 100 µM (inactive) | > 100 µM (inactive) | > 100 µM (inactive) | – | > 100 µM (inactive) | > 100 µM (inactive) | > 100 µM (inactive) | > 100 µM (inactive) | > 100 µM (inactive) | > 100 µM (inactive) | – | > 100 µM (inactive) | > 100 µM (inactive) | > 100 µM (inactive) | > 100 µM (inactive) | > 100 µM (inactive) | > 100 µM (inactive) | –
COC1=CC(=O)C2C(C1=O)C(c1ccc(Cl)cc1)[C@@H]2C (stereo partly drawn) | 58.9 µM (inactive) | 34 µM (inactive) | 15.7 µM (inactive) | 22.2 µM (inactive) | 39.1 µM (inactive) | 55.3 µM (inactive) | 47.2 µM (inactive) | 22.4 µM (inactive) | – | 31.6 µM (inactive) | 23 µM (inactive) | 28.6 µM (inactive) | – | 30.3 µM (inactive) | 20.6 µM (inactive) | 28.9 µM (inactive) | 19.5 µM (inactive) | > 100 µM (inactive) | – | –
Cc1ccc2n(c1)cc(-c1ccc(/C=N/NC(=N)N/N=C/c3ccc(-c4cn5cc(C)ccc5[n+]4C)cc3)cc1)[n+]2C | – | > 100 µM (inactive) | > 100 µM (inactive) | > 100 µM (inactive) | > 100 µM (inactive) | > 100 µM (inactive) | > 100 µM (inactive) | – | > 100 µM (inactive) | > 100 µM (inactive) | – | – | > 100 µM (inactive) | > 100 µM (inactive) | > 100 µM (inactive) | 19.5 µM (inactive) | 41.1 µM (inactive) | > 100 µM (inactive) | 35.6 µM (inactive) | > 100 µM (inactive)
